Laboratory results taken from patent US20260297081A1, “COMPOUNDS AND METHODS OF TREATING CANCERS” (Cullgen Inc., priority 2023, published 2026).

What was measured:
MCF7 cells = assay: Anti-proliferation (viability) of MCF7 cells (Table 7, FIG. 2B); type: cell-based; conditions: Homo sapiens, MCF7, MCF7 cells, 3-6 days, 10-point serial dilution; read-out: GI IC50 in MCF-7
CDK4 = CDK4 (Homo sapiens, UniProt P11802+Q16531); assay: HiBiT detection of HiBiT-tagged CDK4 protein level in MCF7 cells, 16 hours (Table 8); type: cell-based; design: expressed in transfected cells; host or cells: MCF7; conditions: MCF7 cells stably expressing HiBiT tagged target proteins; for activity at 0.01 µM: 10 nM, read-out: % CDK4 Relative Level (10 nM); for activity at 0.1 µM: 100 nM, read-out: % CDK4 Relative Level (100 nM)
Chain of CDK4 (P11802 whole entry): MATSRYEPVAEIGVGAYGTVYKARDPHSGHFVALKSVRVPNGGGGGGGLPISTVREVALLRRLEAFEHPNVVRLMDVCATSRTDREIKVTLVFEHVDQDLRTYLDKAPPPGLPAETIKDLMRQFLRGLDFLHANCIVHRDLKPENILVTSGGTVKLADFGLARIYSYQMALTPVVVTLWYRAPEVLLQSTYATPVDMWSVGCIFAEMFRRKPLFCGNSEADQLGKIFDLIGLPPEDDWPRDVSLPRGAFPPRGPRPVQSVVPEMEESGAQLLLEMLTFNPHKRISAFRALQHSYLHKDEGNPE
Chain of CDK4 (P24385 whole entry partner): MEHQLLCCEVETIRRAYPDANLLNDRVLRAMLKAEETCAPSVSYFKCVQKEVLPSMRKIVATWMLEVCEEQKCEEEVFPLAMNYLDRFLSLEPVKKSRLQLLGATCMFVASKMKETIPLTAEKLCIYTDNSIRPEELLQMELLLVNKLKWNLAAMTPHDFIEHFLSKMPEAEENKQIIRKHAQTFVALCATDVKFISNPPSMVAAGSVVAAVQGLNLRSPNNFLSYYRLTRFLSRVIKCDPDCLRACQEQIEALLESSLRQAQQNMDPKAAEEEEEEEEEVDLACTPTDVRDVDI
Chain of CDK4 (Q16531 2-1140 limits assumed): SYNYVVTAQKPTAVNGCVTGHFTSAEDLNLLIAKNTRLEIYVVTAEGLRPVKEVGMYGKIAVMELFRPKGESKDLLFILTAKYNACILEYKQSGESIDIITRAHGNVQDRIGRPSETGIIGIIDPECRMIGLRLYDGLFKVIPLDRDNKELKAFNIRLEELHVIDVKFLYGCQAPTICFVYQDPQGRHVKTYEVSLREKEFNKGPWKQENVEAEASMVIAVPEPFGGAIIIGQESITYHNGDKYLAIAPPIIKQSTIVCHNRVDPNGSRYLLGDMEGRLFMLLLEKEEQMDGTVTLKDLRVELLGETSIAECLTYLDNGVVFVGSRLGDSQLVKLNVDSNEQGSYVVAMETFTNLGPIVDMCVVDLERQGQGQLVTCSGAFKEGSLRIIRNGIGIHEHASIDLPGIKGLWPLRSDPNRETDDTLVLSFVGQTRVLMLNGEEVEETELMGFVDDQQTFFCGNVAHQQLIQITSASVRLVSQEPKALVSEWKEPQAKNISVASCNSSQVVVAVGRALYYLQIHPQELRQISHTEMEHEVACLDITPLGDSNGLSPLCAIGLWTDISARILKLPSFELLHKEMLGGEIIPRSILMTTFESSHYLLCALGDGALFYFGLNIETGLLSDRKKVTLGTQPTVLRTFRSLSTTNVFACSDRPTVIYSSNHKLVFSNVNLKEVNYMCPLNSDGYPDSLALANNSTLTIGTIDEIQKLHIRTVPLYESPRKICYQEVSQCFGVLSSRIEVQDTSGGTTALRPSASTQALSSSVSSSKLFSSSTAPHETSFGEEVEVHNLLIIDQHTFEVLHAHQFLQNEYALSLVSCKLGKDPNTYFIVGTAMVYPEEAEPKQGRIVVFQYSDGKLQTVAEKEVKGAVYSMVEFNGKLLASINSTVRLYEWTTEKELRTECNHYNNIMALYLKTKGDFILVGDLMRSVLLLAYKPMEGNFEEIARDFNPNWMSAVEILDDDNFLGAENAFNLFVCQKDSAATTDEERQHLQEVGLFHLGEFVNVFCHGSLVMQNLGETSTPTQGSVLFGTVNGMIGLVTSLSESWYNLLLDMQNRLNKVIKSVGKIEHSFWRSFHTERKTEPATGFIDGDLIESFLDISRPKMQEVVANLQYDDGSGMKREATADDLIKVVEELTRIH
Method: HiBiT detection system quantitatively measures total amounts of HiBiT-tagged proteins using a luminescent based method. MCF7 cells stably expressing HiBiT tagged target proteins were treated with heterobifunctional compounds at indicated concentrations for 16 hours, then lysed with Nano-Glo HiBiT Lytic detection reagents.

| Compound | IC50 (MCF7 cells) [nM] | activity at 0.01 µM (CDK4) [%] | activity at 0.1 µM (CDK4) [%] |
| --- | --- | --- | --- |
| CC(=O)c1c(C)c2cnc(Nc3ccc(N4CCC5(CC4)CC5C(=O)N4CCC(Nc5nc(NC(C)C)ccc5C(=O)Nc5ccc(N(C)C)nn5)CC4)cn3)nc2n(C2CCCC2)c1=O (stereo not drawn) [CPD-407, 2-((1-(6-(6-((6-acetyl-8-cyclopentyl-5-methyl-7-oxo-7,8-dihydropyrido[2,3-d]pyrimidin-2-yl)amino)pyridin-3-yl)-6-azaspiro[2.5]octane-1-carbonyl)piperidin-4-yl)amino)-N-(6-(dimethylamino)pyridazin-3-yl)-6-(isopropylamino)nicotinamide] | < 50 | 55 to 85 | 55 to 85 |
| CC(=O)c1c(C)c2cnc(Nc3ccc(N4CCC5(CC4)CC5C(=O)NC4CC5(C4)CC(Nc4nc(NC(C)C)ccc4C(=O)Nc4ccc(N(C)C)nn4)C5)cn3)nc2n(C2CCCC2)c1=O (stereo not drawn) [CPD-414, 6-(6-((6-acetyl-8-cyclopentyl-5-methyl-7-oxo-7,8-dihydropyrido[2,3-d]pyrimidin-2-yl)amino)pyridin-3-yl)-N-(6-((3-((6-(dimethylamino)pyridazin-3-yl)carbamoyl)-6-(isopropylamino)pyridin-2-yl)amino)spiro[3.3]heptan-2-yl)-6-azaspiro[2.5]octane-1-carboxamide] | < 50 | 55 to 85 | 55 to 85 |
| CC(=O)c1c(C)c2cnc(Nc3ccc(N4CCC(N(C)CC(=O)N5CC6(CC(Nc7nc(NC(C)C)ccc7C(=O)Nc7ccc(N(C)C)nn7)C6)C5)CC4)cn3)nc2n(C2CCCC2)c1=O [CPD-425, 2-((2-(N-(1-(6-((6-acetyl-8-cyclopentyl-5-methyl-7-oxo-7,8-dihydropyrido[2,3-d]pyrimidin-2-yl)amino)pyridin-3-yl)piperidin-4-yl)-N-methylglycyl)-2-azaspiro[3.3]heptan-6-yl)amino)-N-(6-(dimethylamino)pyridazin-3-yl)-6-(isopropylamino)nicotinamide] | < 50 | 55 to 85 | 55 to 85 |
| CC(=O)c1c(C)c2cnc(Nc3ccc(N4CCN(CC(=O)NCC56CC(Nc7nc(NC(C)C)ccc7C(=O)Nc7ccc(N(C)C)nn7)(C5)C6)CC4)cn3)nc2n(C2CCCC2)c1=O [CPD-429, 2-((3-((2-(4-(6-((6-acetyl-8-cyclopentyl-5-methyl-7-oxo-7,8-dihydropyrido[2,3-d]pyrimidin-2-yl)amino)pyridin-3-yl)piperazin-1-yl)acetamido)methyl)bicyclo[1.1.1]pentan-1-yl)amino)-N-(6-(dimethylamino)pyridazin-3-yl)-6-(isopropylamino)nicotinamide] | < 50 | 55 to 85 | 55 to 85 |

More lines, now with the values ahead:

| IC50 (MCF7 cells) [nM] | activity at 0.01 µM (CDK4) [%] | activity at 0.1 µM (CDK4) [%] | Compound |
| --- | --- | --- | --- |
| < 50 | 55 to 85 | 55 to 85 | CC(=O)c1c(C)c2cnc(Nc3ccc(N4CCN(C(C)CC(=O)N5CC6(CC(Nc7nc(NC(C)C)ccc7C(=O)Nc7ccc(N(C)C)nn7)C6)C5)CC4)cn3)nc2n(C2CCCC2)c1=O (stereo not drawn) [CPD-368, 2-((2-(3-(4-(6-((6-acetyl-8-cyclopentyl-5-methyl-7-oxo-7,8-dihydropyrido[2,3-d]pyrimidin-2-yl)amino)pyridin-3-yl)piperazin-1-yl)butanoyl)-2-azaspiro[3.3]heptan-6-yl)amino)-N-(6-(dimethylamino)pyridazin-3-yl)-6-(isopropylamino)nicotinamide] |
| < 50 | > 85 | 55 to 85 | CC(=O)c1c(C)c2cnc(Nc3ccc(CN4CCN(CC(=O)N5CC6(CC(Nc7nc(NC(C)C)ccc7C(=O)Nc7ccc(N(C)C)nn7)C6)C5)CC4)cn3)nc2n(C2CCCC2)c1=O [CPD-422, 2-((2-(2-(4-((6-((6-acetyl-8-cyclopentyl-5-methyl-7-oxo-7,8-dihydropyrido[2,3-d]pyrimidin-2-yl)amino)pyridin-3-yl)methyl)piperazin-1-yl)acetyl)-2-azaspiro[3.3]heptan-6-yl)amino)-N-(6-(dimethylamino)pyridazin-3-yl)-6-(isopropylamino)nicotinamide] |
